Test results reported in article PMC8878717, “The Oxime Ethers with Heterocyclic, Alicyclic and Aromatic Moiety as Potential Anti-Cancer Agents” (Molecules, 2022).
“And” between values parts separate entries of the source, which are not always exact repeats. Equal values may be shown once. Read-outs that look alike come from different tables or passages of the source. Each block holds one compound with its values, some of them ahead of it.

What was measured:
A549 cells = assay: MTT cytotoxicity test on A549 cells; type: cell-based; conditions: Homo sapiens
Protocol: (§1) Therefore, compounds showing the highest cytotoxicity (8, 9, 18, 22, 24–27) were further tested on normal human dermal fibroblasts (HDF), A549, Caco-2, and HeLa cells to compare their activity after 24 h and 72 h culture (Figure 5 and Figure 6).
(§2) 2-Acetylbenzofuran, 2-acetylbenzothiophene, 2-acetylthiophene, 2-acetylthiazole, cyclohexanone and acetophenone derivatives were used for in vitro cytotoxicity assays with cervical adenocarcinoma (HeLa), human dermal fibroblasts (HDF), lung epithelial carcinoma (A549), and intestinal epithelial carcinoma (Caco-2) cell lines. A549, Caco-2, and HeLa cells were obtained from Sigma-Aldrich (Germany), and HDF from Biokom (Poland). All cell lines were cultured according to the manufacturer’s protocol under sterile conditions in the presence of 4.9% CO2 at 37 °C. A549 cells were grown in F-12 medium containing 10% fetal bovine serum (FBS) and 1% penicillin/streptomycin. HDF cells were grown in DMEM (low glucose, with 2 mM glutamine) medium containing 10% fetal bovine serum (FBS) and 1% penicillin/streptomycin. Caco-2 cells were grown in EMEM medium containing 10% fetal bovine serum (FBS), 1% non-essential amino acids (NEAA) and 1% penicillin/streptomycin. HeLa cells were grown in DMEM (low glucose, with 2 mM glutamine) medium containing 10% fetal bovine serum (FBS) and 1% gentamycin. After thawing, cells were cultured until they reached sub-confluent state. The cells were then detached using 0.25% trypsin solution and seeded into 24-well or 96-well plates (3 × 10^3 cells per well) for further experiments. After 24 h growth, the tested compounds were added to the cell cultures in concentrations of 1, 10, 50, 100 and 250 μg mL^−1, respectively, and incubated for the next 24 h or 72 h. The MTT test, based on the ability to reduce 3-(4,5-dimethylthiazol 2-yl)-2,5-diphenyltetrazolium bromide (MTT) by mitochondrial dehydrogenases, was performed in triplicate to assess cell metabolic activity and viability. The plates were then read spectrophotometrically at a wavelength of 570 nm. The dose-dependence curves were charted directly on x-/y-axes, with the drug dosages on the x-axis and the cell viability (percentage of viable cells) on the y-axis.

Caco-2 cells = assay: MTT cytotoxicity test on Caco-2 cells; type: cell-based, human; conditions: Homo sapiens
Protocol: as §1, §2

[1] = system: human dermal fibroblasts (HDF); assay: MTT cytotoxicity test on HDF cells; type: cell-based; conditions: Homo sapiens, Fibroblast, HDF
Protocol: as §1, §2

HeLa cells = assay: MTT cytotoxicity test on HeLa cells; type: cell-based, human; conditions: for cytotoxicity / cell viability of HeLa cells at low concentration: 1–10 μg/mL (1 and 10 μg/mL)
Protocol: Cytotoxic properties of all compounds were determined by 3-(4,5-dimethylthiazol-2-yl)-2,5-diphenyltetrazolium bromide (MTT) test reflecting cell viability. Cytotoxicity screening of all 27 compounds—2-acetylbenzofuran oxime (6) and its oxime ethers (1–5), as well as: 2-acetylthiophene (7–17), cyclohexanone (18–20), acetophenone (21–23), thiazole (24–25), benzothiazole (26–27) oxime ethers—was performed in vitro on human cervical adenocarcinoma (HeLa) cells as the representatives of cancerous cells.
as §2

[2] = MTT cytotoxicity test on HDF cells; type: cell-based, human; conditions: human, human dermal fibroblasts (HDF); 100 μg/mL, 24 h exposure
Protocol: as §1, §2

[3] = A549, 24 h, MTT, read-out: EC50 Value A549 24 h
[4] = A549, 72 h, MTT, read-out: EC50 Value A549 72 h
[5] = Caco-2, 24 h, MTT, read-out: EC50 Value Caco-2 24 h
[6] = Caco-2, 72 h, MTT, read-out: EC50 Value Caco-2 72 h
[7] = 24 h, MTT, read-out: EC50 Value HDF 24 h
[8] = 72 h, MTT, read-out: EC50 Value HDF 72 h
[9] = Homo sapiens, HeLa, 24 h, HeLa, 24 h culture, MTT, read-out: EC50 for HeLa Cells
[10] = Homo sapiens, HeLa, 72 h, HeLa, 72 h, MTT, read-out: EC50 Value HeLa 72 h

Structure (SMILES): CC(=NOCc1ccc([N+](=O)[O-])cc1)c1cccs1 [Compound 9]
EC50 (A549 cells; [3]): 107 µg/mL and 390 µM | EC50 (A549 cells; [4]): 131 µg/mL and 470 µM | EC50 (Caco-2 cells; [5]): 78 µg/mL and 280 µM | EC50 (Caco-2 cells; [6]): 105 µg/mL and 380 µM | EC50 [1, 7]: 172 µg/mL and 620 µM | EC50 [1, 8]: 44.7 µg/mL and 160 µM | EC50 (HeLa cells; [9]): 460 µM | EC50 (HeLa cells; [10]): 6.9 µg/mL and 20 µM

Structure (SMILES): O=C(O)CON=C1CCCCC1 [Compound 18, 2-(cyclohexylideneaminoxy)acetic acid]
EC50 (A549 cells; [3]): 47.8 µg/mL and 280 µM | EC50 (A549 cells; [4]): 17.9 µg/mL and 100 µM | EC50 (A549 cells; A549, 72 h, read-out: EC50 A549): 90 to 100 µM | viability at 100 µg/mL (A549 cells; A549, 100 μg/mL, 24 h exposure): ~20% | EC50 (Caco-2 cells; [5]): 44.4 µg/mL and 260 µM | EC50 (Caco-2 cells; [6]): 17.5 µg/mL and 100 µM | EC50 (Caco-2 cells; Caco-2, 72 h, read-out: EC50 Caco-2): 90 to 100 µM | viability at 100 µg/mL (Caco-2 cells; Caco-2, 100 μg/mL, 24 h exposure): ~20% | viability at 24 h, 100 μg/mL [2]: ~20% | EC50 [1, 7]: 43.7 µg/mL and 260 µM | EC50 [1, 8]: 14.7 µg/mL and 90 µM | EC50 ([1]; 72 h culture, read-out: EC50 HDF): 90 to 100 µM | viability of HeLa cells (of control) (HeLa cells; 100–250 μg/mL, MTT): below 20% | EC50 (HeLa cells; [9]): 32.3 µg/mL and 190 µM | EC50 (HeLa cells; [10]): 4.9 µg/mL and 30 µM | viability at 100 µg/mL (HeLa cells; Homo sapiens, HeLa, 100 μg/mL, 24 h exposure): ~20%

Structure (SMILES): C/C(=N\OCCN)c1cccs1 [Compound 13, (E)-1-(thiophen-2-yl)ethanone O-2-aminoethyl oxime]
EC50 (HeLa cells; [9]): > 250 µg/mL and > 1.36 mM

Structure (SMILES): CC(=NOCc1ccc(C(F)(F)F)cc1)c1cc2ccccc2o1 [Compound 2]
EC50 (HeLa cells; [9]): > 250 µg/mL and > 750 µM

Structure (SMILES): CC(=NOCCN1CCOCC1)c1cccs1 [Compound 12]
cytotoxicity / cell viability of HeLa cells at low concentration (HeLa cells; MTT): increased cell viability | EC50 (HeLa cells; [9]): > 250 µg/mL and > 980 µM

Structure (SMILES): CC(=NOCC(=O)O)c1cccs1 [Compound 17]
cytotoxicity / cell viability of HeLa cells at low concentration (HeLa cells; MTT): increased cell viability | EC50 (HeLa cells; [9]): > 250 µg/mL and > 1.25 mM

Structure (SMILES): CN(C)CCON=C1CCCCC1 [Compound 19]
EC50 (HeLa cells; [9]): > 250 µg/mL and > 1.36 mM

Structure (SMILES): CC(=NO)c1cc2ccccc2o1 [Compound 6, 2-acetylbenzofuran oxime]
EC50 (HeLa cells; [9]): > 250 µg/mL and > 1.43 mM

Structure (SMILES): CC(=NOCCN(C)C)c1ccccc1 [Compound 23]
EC50 (HeLa cells; [9]): 233 µg/mL and 1.13 mM

Structure (SMILES): CC(=NOCc1c(F)cccc1F)c1cc2ccccc2o1 [Compound 5]
EC50 (HeLa cells; [9]): > 250 µg/mL and > 830 µM

melting point: 67 to 70 °C
Structure (SMILES): C/C(=N\OCc1ccc(Br)cc1)c1nccs1 [Compound 25, (E)-1-(thiazol-2-yl)ethanone O-4-bromobenzyl oxime]
EC50 (A549 cells; [3]): > 250 µg/mL and > 800 µM | EC50 (A549 cells; [4]): 79.9 µg/mL and 260 µM | EC50 (Caco-2 cells; [5]): 70.8 µg/mL and 230 µM | EC50 (Caco-2 cells; [6]): 50.5 µg/mL and 160 µM | EC50 [1, 7]: 37.9 µg/mL and 120 µM | EC50 [1, 8]: 25.7 µg/mL and 80 µM | EC50 (HeLa cells; [9]): 130 µg/mL and 420 µM | EC50 (HeLa cells; [10]): 47.3 µg/mL and 150 µM

Structure (SMILES): CC(=NOCc1ccc(Cl)cc1Cl)c1cc2ccccc2o1 [Compound 1]
EC50 (HeLa cells; [9]): > 250 µg/mL and > 750 µM

Structure (SMILES): COc1ccc([N+](=O)[O-])c(CON=C(C)c2cccs2)c1 [Compound 10]
EC50 (HeLa cells; [9]): > 250 µg/mL and > 820 µM

Structure (SMILES): CC(=NOCCCN(C)C)c1cccs1 [Compound 16]
cytotoxicity / cell viability of HeLa cells at low concentration (HeLa cells; MTT): increased cell viability | EC50 (HeLa cells; [9]): > 250 µg/mL and > 1.1 mM

Structure (SMILES): CC(=NOCc1ccc([N+](=O)[O-])cc1)c1cc2ccccc2o1 [Compound 4]
EC50 (HeLa cells; [9]): > 250 µg/mL and > 810 µM

Structure (SMILES): COc1ccc(CO/N=C(\C)c2nccs2)cc1 [Compound 24, (E)-1-(thiazol-2-yl)ethanone O-4-methoxybenzyl oxime]
EC50 (A549 cells; [3]): > 250 µg/mL and > 950 µM | EC50 (A549 cells; [4]): 35.7 µg/mL and 140 µM | EC50 (Caco-2 cells; [5]): > 250 µg/mL and > 950 µM | EC50 (Caco-2 cells; [6]): 69.1 µg/mL and 260 µM | EC50 [1, 7]: 35.3 µg/mL and 130 µM | EC50 [1, 8]: 30.6 µg/mL and 120 µM | EC50 (HeLa cells; [9]): 110 µg/mL and 420 µM | EC50 (HeLa cells; [10]): 8.7 µg/mL and 30 µM

melting point: 113 to 117 °C
Structure (SMILES): CC(=NOCc1ccc(Cl)cc1Cl)c1cc2ccccc2s1 [Compound 26, (E)-1-(benzothiophene-2-yl)ethanone O-2,4-dichlorobenzyl oxime]
EC50 (A549 cells; [3]): 199 µg/mL and 570 µM | EC50 (A549 cells; [4]): 177 µg/mL and 510 µM | EC50 (Caco-2 cells; [5]): > 250 µg/mL and > 710 µM | EC50 (Caco-2 cells; [6]): 50.1 µg/mL and 140 µM | EC50 [1, 7]: 135 µg/mL and 380 µM | EC50 [1, 8]: 25.7 µg/mL and 70 µM | EC50 (HeLa cells; [9]): 121 µg/mL and 350 µM | EC50 (HeLa cells; [10]): 8.18 µg/mL and 20 µM

Structure (SMILES): CC(=NOCc1ccc(Br)cc1)c1cc2ccccc2o1 [Compound 3]
EC50 (HeLa cells; [9]): > 250 µg/mL and > 730 µM

Structure (SMILES): CC(=NOCCN(C)C)c1cccs1 [Compound 11]
EC50 (HeLa cells; [9]): > 250 µg/mL and > 1.18 mM

Structure (SMILES): C1CCC(=NOCCN2CCOCC2)CC1 [Compound 20]
EC50 (HeLa cells; [9]): > 250 µg/mL and > 1.1 mM

Structure (SMILES): CC(=NOCc1ccc(Br)cc1)c1cccs1 [Compound 8]
EC50 (A549 cells; [3]): 194 µg/mL and 620 µM | EC50 (A549 cells; [4]): 228 µg/mL and 740 µM | EC50 (Caco-2 cells; [5]): 230 µg/mL and 740 µM | EC50 (Caco-2 cells; [6]): 118 µg/mL and 380 µM | EC50 [1, 7]: 127 µg/mL and 410 µM | EC50 [1, 8]: 118 µg/mL and 380 µM | EC50 (HeLa cells; [9]): 610 µM | EC50 (HeLa cells; [10]): 40 µg/mL and 130 µM

Structure (SMILES): CCN(CC)CCO/N=C(\C)c1cccs1 [Compound 14, (E)-1-(thiophen-2-yl)ethanone O-2-(diethylamino)ethyl oxime]
EC50 (HeLa cells; [9]): > 250 µg/mL and > 1.04 mM

Structure (SMILES): CC(=NOCc1ccc(Cl)cc1Cl)c1cccs1 [Compound 7]
cytotoxicity / cell viability of HeLa cells at low concentration (HeLa cells; MTT): increased cell viability | EC50 (HeLa cells; [9]): > 250 µg/mL and > 830 µM

Structure (SMILES): C/C(=N\OCCCN)c1cccs1 [Compound 15, (E)-1-(thiophen-2-yl)ethanone O-3-aminopropyl oxime]
EC50 (HeLa cells; [9]): > 250 µg/mL and > 1.1 mM
